Experimental data taken from ChEMBL document CHEMBL1201862, “PubChem BioAssay data set” (2004).
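Where inhibition never reached the appropriate level, the endpoint shown equals the highest concentration tested. Otherwise, values were interpolated linearly from a five-concentration, 48-hour dose response in 96-well plates. GI50 is the concentration that inhibits growth by half.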 Active and inactive are the calls of the source. No stated cut-off is given here; in the data, active = GI50 up to about 1.1 µM and inactive = higher.

Key:
Assay in all cases: growth of human tumour cells (NCI), 48 h
NCI-H460 = system: NCI-H460
SNB-19 = system: SNB-19
HL-60 = system: HL-60
DMS-273 = system: DMS-273
HOP-62 = system: HOP-62
HCT-116 = system: HCT-116
UACC-257 = system: UACC-257
SF-295 = system: SF-295
LXFL 529 = system: LXFL 529
SNB-75 = system: SNB-75
SW-620 = system: SW-620
Malme-3M = system: Malme-3M
M19-MEL = system: M19-MEL
SK-MEL-28 = system: SK-MEL-28
SK-OV-3 = system: SK-OV-3
SF-539 = system: SF-539
XF498 = system: XF498

Row | SMILES | GI50 (NCI-H460) | GI50 (SNB-19) | GI50 (HL-60) | GI50 (DMS-273) | GI50 (HOP-62) | GI50 (HCT-116) | GI50 (UACC-257) | GI50 (SF-295) | GI50 (LXFL 529) | GI50 (SNB-75) | GI50 (SW-620) | GI50 (Malme-3M) | GI50 (M19-MEL) | GI50 (SK-MEL-28) | GI50 (SK-OV-3) | GI50 (SF-539) | GI50 (XF498)
1 | CC(=O)c1cccc(C)c1C(=O)O | > 100 µM (inactive) | > 100 µM (inactive) | > 100 µM (inactive) | > 100 µM (inactive) | > 100 µM (inactive) | > 100 µM (inactive) | > 100 µM (inactive) | > 100 µM (inactive) | > 100 µM (inactive) | > 100 µM (inactive) | > 100 µM (inactive) | > 100 µM (inactive) | > 100 µM (inactive) | > 100 µM (inactive) | > 100 µM (inactive) | – | –
2 | CCC1=C(CC)C1(C#N)[N+](=O)[O-] | > 100 µM (inactive) | > 100 µM (inactive) | > 100 µM (inactive) | > 100 µM (inactive) | > 100 µM (inactive) | > 100 µM (inactive) | > 100 µM (inactive) | > 100 µM (inactive) | > 100 µM (inactive) | – | > 100 µM (inactive) | > 100 µM (inactive) | > 100 µM (inactive) | – | > 100 µM (inactive) | > 100 µM (inactive) | –
3 | CC(C)c1cccc(C(C)C)c1NC(=O)CCC(=O)NN | 84.9 µM (inactive) | > 100 µM (inactive) | > 100 µM (inactive) | 61.5 µM (inactive) | > 100 µM (inactive) | 66.4 µM (inactive) | > 100 µM (inactive) | > 100 µM (inactive) | > 100 µM (inactive) | > 100 µM (inactive) | 21.9 µM (inactive) | > 100 µM (inactive) | > 100 µM (inactive) | > 100 µM (inactive) | > 100 µM (inactive) | > 100 µM (inactive) | –
4 | COc1cc([C@@H]2c3cc4c(cc3[C@@H](NCc3cccc(C#N)c3)C3COC(=O)[C@@H]32)OCO4)cc(OC)c1O (stereo partly specified) | 0.0356 µM (active) | 1.1 µM (active) | 0.149 µM (active) | 0.349 µM (active) | 0.439 µM (active) | 2.12 µM (inactive) | 6.64 µM (inactive) | 0.925 µM (active) | 5.9 µM (inactive) | 1.06 µM (active) | 0.646 µM (active) | 2.18 µM (inactive) | 5.7 µM (inactive) | 3.32 µM (inactive) | 1.53 µM (inactive) | 0.326 µM (active) | –
5 | Cc1cc(=O)n(-c2c(C)cccc2Cl)c(/C=C(\O)c2ccncc2)n1 | > 100 µM (inactive) | > 100 µM (inactive) | 6.21 µM (inactive) | > 100 µM (inactive) | > 100 µM (inactive) | > 100 µM (inactive) | > 100 µM (inactive) | > 100 µM (inactive) | > 100 µM (inactive) | 29.4 µM (inactive) | > 100 µM (inactive) | > 100 µM (inactive) | – | > 100 µM (inactive) | > 100 µM (inactive) | > 100 µM (inactive) | –
6 | CC1=C(NC(=O)C(=O)NNC(=O)c2ccncc2)C(=O)c2ccccc2C1=O | 4.44 µM (inactive) | 17.5 µM (inactive) | 10.8 µM (inactive) | 5.48 µM (inactive) | 17.5 µM (inactive) | 11.4 µM (inactive) | 9.77 µM (inactive) | 10.8 µM (inactive) | 14.6 µM (inactive) | 17.4 µM (inactive) | 15.7 µM (inactive) | 5.26 µM (inactive) | 1.64 µM (inactive) | 17.3 µM (inactive) | 28.1 µM (inactive) | 17.2 µM (inactive) | –
7 | CCCCOC(=O)/C(CC(=O)C=C(C)C)=N\NS(=O)(=O)c1ccc(C)cc1 | > 100 µM (inactive) | > 100 µM (inactive) | > 100 µM (inactive) | – | > 100 µM (inactive) | > 100 µM (inactive) | > 100 µM (inactive) | > 100 µM (inactive) | > 100 µM (inactive) | > 100 µM (inactive) | – | > 100 µM (inactive) | > 100 µM (inactive) | > 100 µM (inactive) | > 100 µM (inactive) | > 100 µM (inactive) | > 100 µM (inactive)
8 | O=C1Cc2ccccc2N1/N=C\c1ccc([N+](=O)[O-])cc1 | > 100 µM (inactive) | > 100 µM (inactive) | > 100 µM (inactive) | > 100 µM (inactive) | > 100 µM (inactive) | > 100 µM (inactive) | > 100 µM (inactive) | > 100 µM (inactive) | – | 54.8 µM (inactive) | > 100 µM (inactive) | > 100 µM (inactive) | > 100 µM (inactive) | > 100 µM (inactive) | > 100 µM (inactive) | > 100 µM (inactive) | > 100 µM (inactive)
9 | O=C(OCc1ccccc1)c1ccccc1-c1c2ccc(=O)cc-2oc2cc(OCc3ccccc3)ccc12 | 15.7 µM (inactive) | 35.1 µM (inactive) | 5.48 µM (inactive) | 7.03 µM (inactive) | – | 9.46 µM (inactive) | 8.95 µM (inactive) | 17.2 µM (inactive) | 4.88 µM (inactive) | – | 12.1 µM (inactive) | 12.1 µM (inactive) | 20.3 µM (inactive) | 21.4 µM (inactive) | – | 13.6 µM (inactive) | 15.7 µM (inactive)
10 | CC(C)c1ccc(Cc2ccc(C(C)C)c(NC(=O)C(=O)Cc3cnc4ccccc4n3)c2C(C)C)c(C(C)C)c1NC(=O)C(=O)Cc1cnc2ccccc2n1 | > 100 µM (inactive) | > 100 µM (inactive) | > 100 µM (inactive) | – | > 100 µM (inactive) | > 100 µM (inactive) | > 100 µM (inactive) | > 100 µM (inactive) | > 100 µM (inactive) | – | > 100 µM (inactive) | > 100 µM (inactive) | > 100 µM (inactive) | – | > 100 µM (inactive) | > 100 µM (inactive) | –
11 | Oc1nnc2c(-c3ccccc3)n[nH]c2n1 | > 100 µM (inactive) | > 100 µM (inactive) | > 100 µM (inactive) | > 100 µM (inactive) | > 100 µM (inactive) | > 100 µM (inactive) | > 100 µM (inactive) | > 100 µM (inactive) | > 100 µM (inactive) | – | > 100 µM (inactive) | – | – | > 100 µM (inactive) | – | 15 µM (inactive) | –
12 | O=C(O)c1ccc(Nc2nc3nn(Cc4ccccc4)cc3c(=O)s2)cc1 | > 100 µM (inactive) | > 100 µM (inactive) | > 100 µM (inactive) | > 100 µM (inactive) | > 100 µM (inactive) | > 100 µM (inactive) | > 100 µM (inactive) | > 100 µM (inactive) | > 100 µM (inactive) | – | > 100 µM (inactive) | > 100 µM (inactive) | > 100 µM (inactive) | > 100 µM (inactive) | > 100 µM (inactive) | > 100 µM (inactive) | –
13 | Cc1ccc(C2OC(COCc3ccc(Cl)cc3)C(OCc3ccc(Cl)cc3)C2O)cc1 (stereo unspecified) | 4.49 µM (inactive) | 17.8 µM (inactive) | – | 5.82 µM (inactive) | – | 11.5 µM (inactive) | 17 µM (inactive) | 12.3 µM (inactive) | 8.47 µM (inactive) | 4.37 µM (inactive) | 14.3 µM (inactive) | > 10 µM (inactive) | 11.4 µM (inactive) | 31.1 µM (inactive) | 2.63 µM (inactive) | 16 µM (inactive) | 10.2 µM (inactive)
14 | OCC(O)C(OC1OC(CO)C(O)C(O)C1O)c1nn(-c2ccc(Cl)cc2)c2nc3cc(Cl)ccc3nc12 (stereo unspecified) | > 100 µM (inactive) | > 100 µM (inactive) | – | – | > 100 µM (inactive) | > 100 µM (inactive) | > 100 µM (inactive) | > 100 µM (inactive) | > 100 µM (inactive) | > 100 µM (inactive) | – | > 100 µM (inactive) | > 100 µM (inactive) | > 100 µM (inactive) | > 100 µM (inactive) | > 100 µM (inactive) | > 100 µM (inactive)
15 | COC(=O)NC12CC3CC(CC(F)(C3)C1)C2 | > 100 µM (inactive) | > 100 µM (inactive) | > 100 µM (inactive) | > 100 µM (inactive) | > 100 µM (inactive) | > 100 µM (inactive) | > 100 µM (inactive) | – | – | 19.7 µM (inactive) | > 100 µM (inactive) | > 100 µM (inactive) | > 100 µM (inactive) | > 100 µM (inactive) | > 100 µM (inactive) | > 100 µM (inactive) | > 100 µM (inactive)
16 | Oc1cccc(C2SCc3nc4ccccc4n32)c1 (stereo unspecified) | 60.7 µM (inactive) | > 100 µM (inactive) | 25.5 µM (inactive) | 47.1 µM (inactive) | – | 67.9 µM (inactive) | 31.7 µM (inactive) | 39.1 µM (inactive) | 40.6 µM (inactive) | 4.17 µM (inactive) | > 100 µM (inactive) | 41.1 µM (inactive) | – | 59.4 µM (inactive) | > 100 µM (inactive) | > 100 µM (inactive) | –
17 | O=C(CCC(=O)Nc1cccc(Cl)c1)CC(=O)c1ccc(F)cc1 | > 100 µM (inactive) | > 100 µM (inactive) | > 100 µM (inactive) | > 100 µM (inactive) | > 100 µM (inactive) | > 100 µM (inactive) | > 100 µM (inactive) | 23.2 µM (inactive) | – | > 100 µM (inactive) | > 100 µM (inactive) | > 100 µM (inactive) | – | > 100 µM (inactive) | > 100 µM (inactive) | > 100 µM (inactive) | > 100 µM (inactive)
18 | CC1=C2C(=CC(C)(CO)C2O)C(=O)C(C)(O)C12CC2 (stereo unspecified) | 0.000668 µM (active) | 0.00474 µM (active) | 0.00131 µM (active) | 0.00162 µM (active) | 0.00433 µM (active) | 0.00123 µM (active) | 0.00249 µM (active) | 0.00115 µM (active) | 0.00393 µM (active) | 0.00395 µM (active) | 0.00142 µM (active) | 0.00361 µM (active) | 0.00337 µM (active) | 0.00425 µM (active) | 0.005 µM (active) | 0.00569 µM (active) | –
